Results reported in patent publication US20100227827A1, “METHOD OF INCREASING TRYPTOPHAN AND NICOTINAMIDE LEVELS IN VIVO” (priority 2006, published 2010).
“And” between values parts separate entries of the source, which are not always exact repeats. Equal values may be shown once. Where a name gives a salt, the structure may show the parent alone. Marks after values point to notes of the source that are not given here. Blank lines part the entries; values can stand above or below the molecule they belong to.

How the values were obtained:
[1] = Molar ratio from neutralization of free organic acid with hydroxides; format: physicochemical; conditions: salt or chelate
Description: Determination of salts and chelates of some naturally occurring polyhydroxylated and polycarboxylated organic acids are provided in Table 1. Experimental molar ratios were calculated from neutralization to pH=7.5 of free protonated organic acid (H^+) with sodium, potassium or ammonium hydroxides.

[2] = oral human dose 100 mg/kg (50-200 mg/kg); Smith 1982; cited from earlier work
[3] = Urinary quinic acid, hippuric acid, tryptophan and nicotinamide by HPLC; format: in vivo, human; conditions: over 9 months, Table 4 and text calculations
Description: Blood samples were collected by venal puncture using vacutainers (red top, 10 ml) usually in the morning (a.m.) after 12 hours of fasting. Serum was separated from the blood clot after setting 2 hr on the bench top before centrifugation for 10 min at 1500×g. Sera prepared in this manner were stored at +4° C. until biochemical analysis usually within 1-30 days of collection. Urine samples were collected as a random 50 ml sample in the A.M. during the treatment and follow-up (after treatment for 8 months) periods. Urine was spun at 5000×g for 15 min and the supernatant stored at +4° C. until analyzed within 1 month of collection. After the first analysis all samples were further stored at −20° C. and used for repeat determinations over time. Trial design for the clinical evaluation of Aqua Bimini™ (quinic acid ammonium chelate) was carried out at Lund University beginning Apr. 28, 2006. […] Repeat serum and urine samples were collected throughout the trial period and then pooled into groups for analysis as 6 weeks before (baseline), 4 weeks of intervention (treatment, 36 days) and 8 months dry-out (no treatment). Urine samples were mixed with 1:2:4 v/v/v of: aqueous urine:95% ethanol:ethyl acetate for 10 min with vigorous shaking. The ethyl acetate layer was allowed to separate with gravity at room temperature, and then it was removed with a pipette and evaporated with an air stream to dryness in a vacuum hood. In this manner 1-2 ml of urine were reconstituted in 0.2 ml water or ethanol which represented a 5-10 fold increase in concentration. […] The urine samples were diluted 1:2:4 v/v/v with ethanol and ethyl acetate, and then the ethyl acetate fraction dried, solubilized in 0.2 ml water and used for HPLC analyses with 20 μl injections directly onto a C18 80×4.6 mm. The mobile phase was 0.2% trifluoroacetic (TFA):methanol:acetonitrile (70:30):water in a ratio 8:8:84 (v/v/v). The UV detector was set at 215 nm, and quinic acid eluted with a retention of 0.97-1.05 min and nicotinamide at 2.6-2.9 min. The detection limit in urine was about 1.5 mg/ml for quinic acid and for nicotinamide it was 0.015 mg/ml. […] The urine samples were diluted 1:2:4 v/v/v with ethanol and ethyl acetate, and then the ethyl acetate fraction dried, solubilized in 0.2 ml water and used for HPLC analyses with 20 μl injections directly onto a C18 80×4.6 mm. The mobile phase was 70:30 v/v, 0.2% TFA: 30% methanol. The UV detector was set at 225 nm. Tryptophan eluted after 5.2-5.4 min and hippuric acid after 3.1-3.4 min.

[4] = test system: indolediamine oxygenase (IDO); assay: IDO activity from tryptophan/kynurenine molar ratio in serum (HPLC); conditions: quinic acid supplementation in vivo; tryptophan and kynurenine in serum
Description: Once tryptophan synthesis has been stimulated by the shikimate pathway, it is then further modified by catabolic metabolism via indolediamine oxygenase (IDO) first to kynurenine and/or hydroxtryptophan-serotonin and/or to quinoline-dopamine or to nicotinamde-NAD (energy). The inhibition of IDO activity by quinic acid exposure in vivo favors reduction in immunosuppressive activity. IDO activity was calculated by determining the molar ratios of tryptophan to kynurenine in 200 ul aliquots of 2 M TCA-precipitated serum by high pressure liquid chromatograph (HPLC). The HPLC method has already been published in all its details except the instrument was a HP 1100 series and the column was a XTERRA MSC18 ([…], 4.6 mm×50 mm) (Laich, A, Neurauter, […], Fuchs, D. More rapid method for simultaneous measurement of tryptophan and kyurenine by HPLC. Clinical Chemistry 48 (3): 579-580, 2002). The effect of quinic acid was further characterized on the end products of the shikimate pathway. Accordingly, quinic acid supplementation was analyzed against IDO activity through simultaneous detection of tryptophan and kynurenine. […]

[5] = Mouse 21 day drinking water study, plasma/serum HPLC; format: in vivo, C57BL/6 female mice; conditions: mice
Description: […] The animals were sacrificed, spleens removed and blood collected. The cell samples were analyzed in a […] Corporation, Kobe, Japan) and plasma/serum samples prepared for chemical analysis by HPLC for quinic acid and tryptophan.

spleen cells = assay: Mouse 21 day drinking water study, spleen cell count; format: in vivo, C57BL/6 female mice; conditions: mice, after day 21 intervention in drinking water; C-Med-100 4 mg/ml (500 mg/kg), quinic acid 2 mg/ml (250 mg/kg)
Description: C57BL/6 female mice were fed 4 mg/ml C-Med-100® or 2 mg/ml quinic acid dissolved in autoclaved tap water for 21 days. The animals were sacrificed, spleens removed and blood collected. The cell samples were analyzed in a […] Corporation, Kobe, Japan) and plasma/serum samples prepared for chemical analysis by HPLC for quinic acid and tryptophan.

[6] = Single high dose quinic acid time study, serum HPLC; format: in vivo; conditions: human
Description: Serum samples of 0.2 and 30 ml were collected from blood, and precipitated with either ethanol or trichloroacetic acid (TCA). After clean-up the supernatants were dried (ethanol precipitated) or used directly. A standard curve was prepared using quinic acid (Sigma) dissolved in distilled water and obeyed the equation y=6012.8x−24698; 20 μl injections of solutions between 0-25 mg/ml were used.
A apparently healthy volunteer drank 6 gm of quinic acid ammonium chelate (Quinmax™) dissolved in 300 ml water over a 15 min period, samples were collected, and then about 40 ml of peripheral blood (4-red topped vacutainers) were allowed to clot at room temperature to prepare serum samples by centrifugation. The serum sampling points were 0.7 hr, 1.7 hr, 2.7 hr, 3.7 hr, 10.5 hr 12.5 hr, hr, 28 hr and 44 hr. 30 ml serum samples were precipitated with 50% ethanol, taken to dryness under a stream of air, and redissolved in 1 ml of methanol for simultaneous HPLC analysis of quinic acid and hippuric acid. The data were reported as quinic acid present in 30 ml of serum. The column used for this experiment was a C18 150×4.6 mm. The mobile phase was 0.1% trifluoroacetic (TFA). The UV detector was set at 220 nm and quinic acid eluted with a retention of 2.26 min and hippuric acid at 8.3 min. Sensitivity of the method was about 1/30=0.033 mg quinic acid/ml serum.
A single high dose of 6000 mg was administered orally to a subject, and then 30 ml serum samples were prepared from whole blood samples taken from 0.7 to 44 hours after exposure. As serum samples were precipitated with ethanol and redissolved in 1 ml […], this allowed for a 30-fold increase in concentration of any quinic acid present in each blood sample, rendering the method extremely sensitive to even small amounts of quinic acid.

SMILES: N.N.N.O=C(O)CC(O)(C(=O)O)C(O)C(=O)O (centres unmarked) [Hydroxy citric acid ammonium salt]
Determination of structure existing in water [1]: Chelate

SMILES: N[C@@H](Cc1c[nH]c2ccccc12)C(=O)O [Therapeutic tryptophan, tryptophan]
Urinary excretion daily sample, Tryptophan (avg) [2]: Tryptophan. = 1.3 mg/liter^c

Second part, led by results:

Determination of structure existing in water ([1]; potassium salt): chelate
SMILES: O=C(O)[C@]1(O)C[C@@H](O)[C@@H](O)[C@H](O)C1 [Quinic acid potassium salt]

quinic acid dose excreted unmetabolized in the urine [3]: 40-60%
IDO activity [4]: inhibits IDO activity
level of quinic acid, below HPLC detection ([5]; quinic acid 1 mg/ml in drinking water or about 500 mg/kg, 21 days): < 2 mg/mL
fraction of total dose taken up into the serum ([6]; in vivo): 0.073%
quinic acid found in systemic circulation ([6]; in vivo): < 0.1 % of the administered dose
quinic acid of total dose taken up into the serum ([6]; in vivo): 4.4 mg
quinic acid either excreted or metabolized ([6]; in vivo, 44 h): 99.9%
time of maximum uptake of quinic acid into serum ([6]; single oral dose 6000 mg): 10.5 h and 12.5 h
SMILES: O=C(O)[C@]1(O)C[C@@H](O)[C@@H](O)[C@H](O)C1 [quinic acid]
In vivo plasma tryptophan mean ± s.d. ([5]; after day 21 intervention in drinking water, C-Med-100 4 mg/ml (500 mg/kg)): 79.4 ± 2.7^c μM
In vivo spleen cells mean ± s.d. (spleen cells): 100 ± 10^c ×10^6

Determination of structure existing in water ([1]; sodium salt): salt
SMILES: O=C(O)[C@]1(O)C[C@@H](O)[C@@H](O)[C@H](O)C1 [Quinic acid sodium salt]
